Here are results for one molecule from publication PMC8584730, “Bacillus subtilis ANSB168 Producing D-alanyl-D-alanine Carboxypeptidase Could Alleviate the Immune Injury and Inflammation Induced by Ochratoxin A” (International Journal of Molecular Sciences, 2021).

Test [1] addresses T1, DacA (Bacillus subtilis, UniProt P08750).
T1 construct: mature form without signal peptide (forward primer encodes Met-Ala-Ser-Asp)
Nature of the test: HPLC-fluorescence of OTA hydrolysis. Format: biochemical. The settings on record: 37 °C, optimal pH 7.0; amide bond hydrolysis to ochratoxin alpha.

For test [2], the target named is T2, DacB (Bacillus subtilis, UniProt P35150).
T2 construct: mature form without signal peptide (forward primer encodes Met-Ala-Ile-Asp-Val)
T2 sequence (P35150 28-382): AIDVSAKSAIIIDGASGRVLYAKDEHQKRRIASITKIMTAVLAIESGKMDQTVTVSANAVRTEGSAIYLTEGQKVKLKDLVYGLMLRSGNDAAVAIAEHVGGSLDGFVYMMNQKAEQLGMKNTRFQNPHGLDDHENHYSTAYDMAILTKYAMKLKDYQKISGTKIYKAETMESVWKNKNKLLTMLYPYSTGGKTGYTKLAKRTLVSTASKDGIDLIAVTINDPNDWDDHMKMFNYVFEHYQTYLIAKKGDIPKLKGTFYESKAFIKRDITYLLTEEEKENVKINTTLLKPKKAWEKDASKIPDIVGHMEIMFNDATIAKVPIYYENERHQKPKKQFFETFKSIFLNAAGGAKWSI
The test is described as follows: HPLC-fluorescence of OTA hydrolysis. Format: biochemical. To be noted: 37 °C, optimal pH 7.5; amide bond hydrolysis to ochratoxin alpha.

T1 sequence (P08750 32-443): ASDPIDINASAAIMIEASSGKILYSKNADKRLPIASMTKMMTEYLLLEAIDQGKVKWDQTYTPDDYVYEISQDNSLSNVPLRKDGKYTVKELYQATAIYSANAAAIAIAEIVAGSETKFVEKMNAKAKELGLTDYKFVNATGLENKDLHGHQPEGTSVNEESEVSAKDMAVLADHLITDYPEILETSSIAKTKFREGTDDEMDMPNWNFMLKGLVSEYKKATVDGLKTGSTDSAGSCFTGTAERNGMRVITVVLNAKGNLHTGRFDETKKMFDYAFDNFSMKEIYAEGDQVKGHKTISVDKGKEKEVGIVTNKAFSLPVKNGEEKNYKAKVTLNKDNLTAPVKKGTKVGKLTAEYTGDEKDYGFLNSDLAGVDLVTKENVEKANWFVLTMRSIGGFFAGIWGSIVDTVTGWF

`C[C@@H]1Cc2c(Cl)cc(C(=O)N[C@@H](Cc3ccccc3)C(=O)O)c(O)c2C(=O)O1` [Ochratoxin A, 7-carboxyl-5-chloro-8-hydroxyl-3,4-dihydro-3R-methyl-isocoumarin-7-L-β-phenylalanine]: the Km – broadly, the substrate concentration at which the rate is half of its maximum – is 6.79 µM in test [1] and 2.82 µM in test [2].
